ChEMBL document CHEMBL1201862, “PubChem BioAssay data set” (2004)
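Five compound concentrations were applied to cells in 96-well plates for 48 hours; endpoints were derived by simple linear interpolation of the resulting dose-response curve. GI50 is the concentration that inhibits growth by half.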 The source made the active and inactive calls. No stated cut-off is given here; in the data, active = GI50 up to about 1.1 µM and inactive = higher.

Legend:
Assay in all cases: inhibition of tumour cell growth, NCI panel, 48 h
COLO 205 = tested on: COLO 205
EKVX = tested on: EKVX
HCC 2998 = tested on: HCC 2998
HCT-116 = tested on: HCT-116
HL-60 = tested on: HL-60
MDA-N = tested on: MDA-N
Malme-3M = tested on: Malme-3M
NCI-H226 = tested on: NCI-H226
NCI-H460 = tested on: NCI-H460
OVCAR-4 = tested on: OVCAR-4
OVCAR-5 = tested on: OVCAR-5
OVCAR-8 = tested on: OVCAR-8
SF-295 = tested on: SF-295
SK-MEL-28 = tested on: SK-MEL-28
SNB-19 = tested on: SNB-19
UACC-257 = tested on: UACC-257

Measured: GI50

CCOC(=O)c1cc2c(OC)cc(OC)cc2oc1=O
inactive: COLO 205 > 100 µM | EKVX > 100 µM | HCC 2998 > 100 µM | HCT-116 > 100 µM | HL-60 > 100 µM | MDA-N > 100 µM | Malme-3M > 100 µM | NCI-H226 > 100 µM | NCI-H460 > 100 µM | OVCAR-4 > 100 µM | OVCAR-5 > 100 µM | OVCAR-8 > 100 µM | SF-295 50 µM | SK-MEL-28 > 100 µM | SNB-19 41.8 µM | UACC-257 > 100 µM

N#Cc1nc(-c2cccc(-c3nc(C#N)c(N)o3)n2)oc1N
inactive: COLO 205 > 100 µM | EKVX > 100 µM | HCC 2998 > 100 µM | HCT-116 > 100 µM | HL-60 64.7 µM | MDA-N > 100 µM | Malme-3M > 100 µM | NCI-H226 > 100 µM | NCI-H460 > 100 µM | OVCAR-4 > 100 µM | OVCAR-5 > 100 µM | OVCAR-8 > 100 µM | SF-295 > 100 µM | SK-MEL-28 > 100 µM | SNB-19 > 100 µM | UACC-257 > 100 µM

O=C(O)CCSc1ncnc2[nH]cnc12
inactive: COLO 205 > 100 µM | EKVX > 100 µM | HCC 2998 > 100 µM | HCT-116 > 100 µM | HL-60 > 100 µM | MDA-N > 100 µM | Malme-3M > 100 µM | NCI-H226 64.7 µM | NCI-H460 > 100 µM | OVCAR-4 > 100 µM | OVCAR-5 > 100 µM | OVCAR-8 > 100 µM | SF-295 > 100 µM | SK-MEL-28 > 100 µM | SNB-19 > 100 µM | UACC-257 > 100 µM

CC(=O)O[C@H]1CC[C@@]2(C)C(=CC[C@@H]3[C@@H]2CC[C@]2(C)c4c(cc(C#N)c(=N)n4C(C)=O)C[C@@H]32)C1
inactive: COLO 205 16.1 µM | EKVX 15.9 µM | HCC 2998 23.2 µM | HCT-116 14.8 µM | HL-60 14.6 µM | MDA-N 21 µM | Malme-3M 17.2 µM | NCI-H226 27.4 µM | NCI-H460 16.4 µM | OVCAR-4 18.7 µM | OVCAR-5 27.4 µM | OVCAR-8 16.7 µM | SF-295 11.4 µM | SK-MEL-28 18.7 µM | SNB-19 28 µM | UACC-257 19.1 µM

N#Cc1nc(-c2cccs2)oc1N
inactive: COLO 205 > 100 µM | EKVX 75 µM | HCC 2998 > 100 µM | HCT-116 > 100 µM | HL-60 56.8 µM | MDA-N > 100 µM | Malme-3M > 100 µM | NCI-H226 > 100 µM | NCI-H460 > 100 µM | OVCAR-4 > 100 µM | OVCAR-5 > 100 µM | OVCAR-8 > 100 µM | SF-295 > 100 µM | SK-MEL-28 > 100 µM | SNB-19 > 100 µM | UACC-257 > 100 µM

CC(C)(C)[Si](C)(C)OCC1C=CC(n2cnc3c(N)ncnc32)O1 (centres undefined)
inactive: COLO 205 > 73.1 µM | EKVX > 59.8 µM | HCC 2998 > 100 µM | HCT-116 20.1 µM | HL-60 9.02 µM | MDA-N 26.6 µM | Malme-3M 61.1 µM | NCI-H226 19.2 µM | NCI-H460 > 100 µM | OVCAR-4 32.9 µM | OVCAR-5 72.8 µM | OVCAR-8 42.6 µM | SF-295 55.2 µM | SK-MEL-28 > 62.1 µM | SNB-19 94.2 µM | UACC-257 36 µM

COc1cc2ccc1OCc1cccc(n1)COc1ccc(cc1OC)/C=N\CCNCCNCC/N=C\2
inactive: COLO 205 > 100 µM | EKVX > 100 µM | HCC 2998 > 100 µM | HCT-116 > 100 µM | HL-60 53.5 µM | MDA-N > 100 µM | Malme-3M > 100 µM | NCI-H226 > 100 µM | NCI-H460 > 100 µM | OVCAR-4 > 100 µM | OVCAR-5 > 100 µM | OVCAR-8 > 100 µM | SNB-19 > 100 µM | UACC-257 > 100 µM

Cc1cccc2c(=O)c3cccc([C@H](C)C(=O)O)c3oc12
inactive: COLO 205 > 100 µM | EKVX > 100 µM | HCC 2998 > 100 µM | HCT-116 > 100 µM | HL-60 > 100 µM | MDA-N > 100 µM | Malme-3M > 100 µM | NCI-H226 > 100 µM | NCI-H460 > 100 µM | OVCAR-4 > 100 µM | OVCAR-8 > 100 µM | SF-295 > 100 µM | SK-MEL-28 > 100 µM | SNB-19 > 100 µM | UACC-257 > 100 µM

O=[N+]([O-])/C(Cl)=C(\NCCN/C(C(Cl)=C(Cl)Cl)=C(/Cl)[N+](=O)[O-])C(Cl)=C(Cl)Cl
inactive: COLO 205 36.4 µM | EKVX > 100 µM | HCC 2998 83.6 µM | HCT-116 39.1 µM | HL-60 25.6 µM | MDA-N 82.2 µM | Malme-3M 46.5 µM | NCI-H226 > 100 µM | NCI-H460 49.5 µM | OVCAR-5 > 100 µM | OVCAR-8 40.3 µM | SF-295 39.7 µM | SK-MEL-28 57.8 µM | SNB-19 92.9 µM
